The values below come from patent US20090105477A1, “Quinazoline Protein Tyrosine Phosphatase Inhibitors” (priority 2004, published 2009).

Molecules are shown by their SMILES.

One data set has as its target T1, Human PTP1B (1-321) (Homo sapiens, UniProt P18031).
T1 construct: Human PTP1B (1-321) was cloned from a human cDNA library; made in house; host or cells: E. coli
T1 sequence (P18031 1-321): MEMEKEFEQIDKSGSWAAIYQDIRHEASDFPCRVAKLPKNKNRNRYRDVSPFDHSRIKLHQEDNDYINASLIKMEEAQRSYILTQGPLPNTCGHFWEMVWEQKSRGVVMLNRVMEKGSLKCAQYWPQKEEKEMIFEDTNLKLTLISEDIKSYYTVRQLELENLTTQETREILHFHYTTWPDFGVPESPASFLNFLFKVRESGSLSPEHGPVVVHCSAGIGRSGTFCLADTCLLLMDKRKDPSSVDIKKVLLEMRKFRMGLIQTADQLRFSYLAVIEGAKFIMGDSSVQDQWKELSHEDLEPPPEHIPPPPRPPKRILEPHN
Kind of data set: In Vitro Inhibition of PTP1B (PTPase assay). The class given is biochemical. As to conditions: PTP1B inhibitory activity, procedures of Example 150. As to the method:
Human PTP1B (1-321) was cloned from a human cDNA library using conventional molecular biology techniques. The cDNA sequence was identical to the published human PTP1B sequence (Accession number M33689). The protein was expressed and purified from E. coli as described by Barford D. et. al J. Mol Biol (1994) 239, 726-730.
The measurement of PTPase activity was carried out using one of two methods:
The first method for the measurement of PTP1B inhibitory activity a tyrosine phosphorylated peptide based on the amino acid sequence of insulin receptor tyrosine autophosphorylation site 1146 (TRDI(pY)E) was used as substrate. The reaction conditions were as follows:
PTP1B (0.5-2 nM) was incubated with compound for 15 min in buffer containing 37.5 mM Bis-Tris buffer pH 6.2, 140 mMNaCl, 0.05% BSA and 2 mM DTT. The reaction was started by the addition of 50 μM substrate. After 20 min at room temperature (22-25° C.), the reaction was stopped with KOH and the amount of free phosphate measured using Malachite Green as previously described (Harder et al. 1994 Biochem J. 298; 395).
The second method was used for the measurement of general PTPase inhibitory activity across a panel of PTPases the substrate (6,8-difluoro-4-methylumbelliferyl phosphate (DiFMUP; from Molecular Probes) was used at the Km for each enzyme. The buffer conditions were identical as in the Malachite Green assay. The reaction was stopped with KOH. In this case the dephosphoryated product becomes fluorescent and the fluorescense read (Excitiation: […]/Emmission: 460 nM).

In the case of `CNc1nc(N)nc2cc(-c3ccccc3C)ccc12` [Example 6, N4-Methyl-7-o-tolyl-quinazoline-2,4-diamine], the concentration for half-maximal inhibition (IC50) against Human PTP1B (1-321) turned out to be 3150 nM. This lies in the single-digit micromolar range.
For `CNc1nc(N)nc2cc(-c3c(C)cccc3C)ccc12` [Example 8, 7-(2,6-Dimethyl-phenyl)-N4-methyl-quinazoline-2,4-diamine], on Human PTP1B (1-321), the half-maximal inhibitory concentration (IC50) worked out at 790 nM.
As to `Cc1cccc(C)c1-c1ccc2c(N(C)C)nc(N)nc2c1` [Example 9, 7-(2,6-Dimethyl-phenyl)-N4,N4-dimethyl-quinazoline-2,4-diamine], on Human PTP1B (1-321), 14000 nM corresponded to half-maximal inhibition (IC50).
The same measure, in the same setting: with `CCNc1nc(N)nc2cc(-c3c(C)cccc3C)ccc12` [Example 14, 7-(2,6-Dimethyl-phenyl)-N4-ethyl-quinazoline-2,4-diamine] the figure was 2480 nM.
In turn, `CNc1nc(N)nc2cc(-c3c(OC)cccc3OC)ccc12` [Example 21, 7-(2,6-Dimethoxy-phenyl)-N4-methyl-quinazoline-2,4-diamine] showed a concentration for half-maximal inhibition (IC50) on Human PTP1B (1-321) of 3500 nM.
On the same count and under the same terms, with `CNc1nc(N)nc2cc(-c3c(Cl)cccc3Cl)ccc12` [Example 24, 7-(2,6-Dichloro-phenyl)-N4-methyl-quinazoline-2,4-diamine] the figure was 1110 nM; with `Cc1cccc(C)c1-c1ccc2c(NCCO)nc(N)nc2c1` [Example 36, 2-[2-Amino-7-(2,6-dimethyl-phenyl)-quinazolin-4-ylamino]-ethanol], 3170 nM; with `Nc1nc(NCCO)c2ccc(-c3ccccc3F)cc2n1` [Example 41, 2-[2-Amino-7-(2-fluoro-phenyl)-quinazolin-4-ylamino]-ethanol], 19000 nM.
On the same count and under the same terms, with `Cc1ccccc1-c1ccc2c(NCCO)nc(N)nc2c1` [Example 43, 2-(2-Amino-7-o-tolyl-quinazolin-4-ylamino)-ethanol] the figure was 6020 nM.
The same measure, in the same setting: with `Nc1nc(NCCO)c2ccc(-c3ccccc3C(F)(F)F)cc2n1` [Example 57, 2-[2-Amino-7-(2-trifluoromethyl-phenyl)-quinazolin-4-ylamino]-ethanol] the figure was 3340 nM; with `CNc1nc(N)nc2cc(-c3ccccc3SC)ccc12` [Example 58, N4-Methyl-7-(2-methylsulfanyl-phenyl)-quinazoline-2,4-diamine], 1010 nM.
With `CNc1nc(N)nc2cc(-c3ccc(F)cc3C)ccc12` [Example 69, 7-(4-Fluoro-2-methyl-phenyl)-N4-methyl-quinazoline-2,4-diamine], at Human PTP1B (1-321), the 50% inhibitory concentration (IC50) is 4040 nM.
Still for that read-out and setting: with `CNc1nc(N)nc2cc(-c3ccccc3[S+](C)[O-])ccc12` (stereo not drawn) [Example 71, 7-(2-Methanesulfinyl-phenyl)-N4-methyl-quinazoline-2,4-diamine] the figure was 2780 nM; with `CNc1nc(N)nc2cc(-c3ccccc3S(C)(=O)=O)ccc12` [Example 72, 7-(2-Methanesulfonyl-phenyl)-N4-methyl-quinazoline-2,4-diamine], 1440 nM; with `CSc1ccccc1-c1ccc2c(NCCO)nc(N)nc2c1` [Example 75, 2-[2-Amino-7-(2-methylsulfanyl-phenyl)-quinazolin-4-ylamino]-ethanol], 4180 nM.
In the case of `CCS(=O)(=O)c1ccccc1-c1ccc2c(NC)nc(N)nc2c1` [Example 82, 7-(2-Ethanesulfonyl-phenyl)-N4-methyl-quinazoline-2,4-diamine], the concentration for half-maximal inhibition (IC50) on Human PTP1B (1-321) turned out to be 1390 nM.
On the same count and under the same terms, the same measure for `CNc1nc(N)nc2cc(-c3c(C)cccc3Cl)ccc12` [Example 89, 7-(2-Chloro-6-methyl-phenyl)-N4-methyl-quinazoline-2,4-diamine]: 1460 nM; for `CNc1nc(N)nc2cc(-c3ccccc3S(=O)(=O)N(C)C)ccc12` [Example 120, 2-(2-aAmino-4-methylamino-quinazolin-7-yl)-N,N-dimethyl-benzenesulfonamide]: 1600 nM; for `CCNS(=O)(=O)c1ccccc1-c1ccc2c(NC)nc(N)nc2c1` [Example 125]: 1890 nM.
`CNc1nc(N)nc2cc(-c3ccccc3S(=O)(=O)NC)ccc12` [Example 126, N-methyl-2-(2-amino-4-methylamino-quinazolin-7-yl)-benzenesulfonamide]: the melting point was in the range of 316 to 317 °C. At Human PTP1B (1-321), inhibition was half-maximal at 1940 nM (IC50).

In general, IC50 refers to the point on the concentration scale where inhibition reaches its midpoint. A lower IC50 goes with greater potency in that assay. The term melting point denotes the temperature, or range, at which the solid turns liquid.
